Test results reported in patent publication EP4166651A1, “METHODS AND COMPOSITION TO INCREASE CELLULAR GLUTATHIONE LEVEL” (priority 2021, dated 2023).
Where a SMILES comes first, the peptide text is derived from it. Bridges are numbered along the chain shown (N, C = ends). Roman numbers before positions name the chains, in order.

Legend:
[1] = system: human bone marrow stromal cells, mesenchymal stem cells (MSC)
Method: The assay was performed with human bone marrow stromal cells, mesenchymal stem cells (MSC). In a first step, the cells were seeded in a white 96-well cell culture plate and incubated for 24 h in a CO2-Incubator (37°C, 5% CO2, 95% humidity) at a cell density of 5.000 cells/well. After the resting time of 24 hours, diluted samples containing test compounds were added to the plate in equal volumes of 50 µl to reach the desired concentrations of interest and a final volume of 100 µl per well. Samples of L-cysteine were compared to Cys-peptides and each sample was tested in triplicates. The control was rested in medium without sample. […] The viability was determined based on the quantification of the ATP present in the cells per well. Through the luminescence detection of luciferase using a multiplate reader the ATP amount was measured and quantified. Resulting luminescence signal of samples was normalized to the signal of control cells. […] The viability was determined based on the quantification of the ATP present in the cells per well. Through the luminescence detection of luciferase using a multiplate reader the ATP amount was measured and quantified. Resulting luminescence signal of samples was normalized to the signal of control cells.

[2] = system: Chinese hamster ovary cells (CHO-K1); assay: In vitro Glutathione assay (GSH/GSSG-Glo) after H2O2-induced oxidative stress; assay type: cell-based; details: 24 h pre-incubation or constant incubation, 100 µM H2O2 for 20 min, with and without FBS, compared to medium control not treated with H2O2
Method: The addition of Cys-peptides and mixtures of Cys-peptides with L-cysteine and L-cystine to the cell culture medium was evaluated regarding their influence on the intracellular glutathione level. Oxidative stress was simulated by the addition of hydrogen peroxide solution. The assay was performed with Chinese hamster ovary cells (CHO-K1). […] In relation to the oxidative stress conditions the cells were pre-incubated or constantly incubated with Cys-peptide samples. […] The samples (Ala-Cys)2 and (Lys-Cys)2 were dissolved in culture medium, either containing 10% fetal bovine serum (FBS) or medium without FBS, to perform the assay setup in presence and absence of FBS during the stress phase. […] This leads to luminescence signals which were measured in a multiplate reader. To calculate the GSH concentrations, a dilution series of a glutathione standard was performed, and luminescence signals measured. Relative luminescence signals were plotted against GSH concentrations. After subtracting the background signals, GSH concentration in samples was calculated based on the linear standard curve. […] After luminescence signals were measured, the intracellular glutathione concentration of cells incubated with Cys-peptides and mixtures and treated with 100 µM H2O2 were compared to a medium control, which was not treated with H2O2.

[3] = cell culture media relevant pH of about 7; cited from earlier work

| SMILES | viability of MSCs [1] | intracellular glutathione level [2] | solubility [3] |
| --- | --- | --- | --- |
| C[C@H](N)C(=O)N[C@@H](CSSC[C@H](NC(=O)[C@H](C)N)C(=O)O)C(=O)O [(Ala-Cys)2, N,N'-di-L-alanyl-L-cystine] (I: H-Ala-Cys-OH / II: H-Ala-Cys-OH; disulfide I:2-II:2) | does not have a negative effect on the viability | – | – |
| N[C@@H](CS)C(=O)O [L-Cysteine] | negatively affects viability | increase intracellular glutathione concentration | – |
| N[C@@H](CSSC[C@H](N)C(=O)O)C(=O)O [cystine, L-cystine] | – | – | around 1 mM |
